The source of these data is ChEMBL document CHEMBL3351889, “Identification of a novel 2-pyridyl-benzensulfonamide derivative, RQ-00203078, as a selective and orally active TRPM8 antagonist” (Bioorg Med Chem Lett, 2014).

Data set [1] has as its target Transient receptor potential cation channel subfamily M member 8 (Homo sapiens, UniProt Q7Z2W7). As to the kind of experiment: Antagonist activity at human TRPM8 expressed in HEK293 cells assessed as inhibition of menthol induced Ca2+ influx. The data set is classed as cell-based.
Data set [2] in a line: Intrinsic clearance in human liver microsomes. The format is ADME. Particulars: read-out: CLH.
The nature of data set [3]: Equilibrium solubility of the compound. The data set is classed as physicochemical.
Another data set has as its system Rattus norvegicus. As to the kind of experiment: Antiallodynic activity in icilin-induced wet-dog shake rat model compound administered po 1 hr prior to icilin challenge measured over 30 mins. The data set is classed as functional.
The target in data set [4] is Transient receptor potential cation channel subfamily M member 8 (Rattus norvegicus, UniProt Q8R455). The data set can be described thus: Antagonist activity at rat TRPM8 assessed as inhibition of menthol induced Ca2+ influx by cell-based assay.
The nature of data set [5]: Intrinsic clearance in rat liver microsomes. The format is ADME. Particulars: read-out: CLH.
Data set [6] in a line: Fraction unbound in rat plasma. The data set is classed as ADME, cell-free.
Data set [7] addresses Transient receptor potential cation channel subfamily A member 1 (Homo sapiens, UniProt O75762). The data set can be described thus: Antagonist activity at human TRPA1 expressed in HEK293 cells assessed as inhibition of AITC-induced Ca2+ influx. The format is cell-based.
Data set [8] concerns the target Transient receptor potential cation channel subfamily A member 1 (Rattus norvegicus, UniProt Q6RI86). The data set can be described thus: Antagonist activity at rat TRPA1 expressed in HEK293 cells assessed as inhibition of AITC-induced Ca2+ influx. The format is cell-based.
Data set [9] deals with Transient receptor potential cation channel subfamily V member 4 (Homo sapiens, UniProt Q9HBA0). As to the kind of experiment: Antagonist activity at human TRPV4 expressed in HEK293 cells assessed as inhibition of hypotonic solution-induced Ca2+ influx. The format is cell-based.
The target in data set [10] is Transient receptor potential cation channel subfamily V member 1 (Homo sapiens, UniProt Q8NER1). The data set can be described thus: Antagonist activity at human TRPV1 expressed in HEK293 cells assessed as inhibition of capsaicin-induced Ca2+ influx. The data set is classed as cell-based.
Data set [11] addresses Transient receptor potential cation channel subfamily V member 1 (Rattus norvegicus, UniProt O35433). The data set can be described thus: Antagonist activity at rat TRPV1 expressed in HEK293 cells assessed as inhibition of capsaicin-induced Ca2+ influx. The data set is classed as cell-based.
A short description of data set [12]: Cmax in rat at 3 mg/kg, po. The note with it: in vivo. The data set is classed as ADME, organism-based. Further details: dose 3 mg/kg, route oral.
The nature of data set [13]: Oral bioavailability in rat at 3 mg/kg. The format is ADME, organism-based. Particulars: in vivo.

In brackets after ≈: the same amount, converted by molar mass.

Chain of Transient receptor potential cation channel subfamily M member 8 (Homo sapiens, UniProt Q7Z2W7) (Q7Z2W7 whole entry): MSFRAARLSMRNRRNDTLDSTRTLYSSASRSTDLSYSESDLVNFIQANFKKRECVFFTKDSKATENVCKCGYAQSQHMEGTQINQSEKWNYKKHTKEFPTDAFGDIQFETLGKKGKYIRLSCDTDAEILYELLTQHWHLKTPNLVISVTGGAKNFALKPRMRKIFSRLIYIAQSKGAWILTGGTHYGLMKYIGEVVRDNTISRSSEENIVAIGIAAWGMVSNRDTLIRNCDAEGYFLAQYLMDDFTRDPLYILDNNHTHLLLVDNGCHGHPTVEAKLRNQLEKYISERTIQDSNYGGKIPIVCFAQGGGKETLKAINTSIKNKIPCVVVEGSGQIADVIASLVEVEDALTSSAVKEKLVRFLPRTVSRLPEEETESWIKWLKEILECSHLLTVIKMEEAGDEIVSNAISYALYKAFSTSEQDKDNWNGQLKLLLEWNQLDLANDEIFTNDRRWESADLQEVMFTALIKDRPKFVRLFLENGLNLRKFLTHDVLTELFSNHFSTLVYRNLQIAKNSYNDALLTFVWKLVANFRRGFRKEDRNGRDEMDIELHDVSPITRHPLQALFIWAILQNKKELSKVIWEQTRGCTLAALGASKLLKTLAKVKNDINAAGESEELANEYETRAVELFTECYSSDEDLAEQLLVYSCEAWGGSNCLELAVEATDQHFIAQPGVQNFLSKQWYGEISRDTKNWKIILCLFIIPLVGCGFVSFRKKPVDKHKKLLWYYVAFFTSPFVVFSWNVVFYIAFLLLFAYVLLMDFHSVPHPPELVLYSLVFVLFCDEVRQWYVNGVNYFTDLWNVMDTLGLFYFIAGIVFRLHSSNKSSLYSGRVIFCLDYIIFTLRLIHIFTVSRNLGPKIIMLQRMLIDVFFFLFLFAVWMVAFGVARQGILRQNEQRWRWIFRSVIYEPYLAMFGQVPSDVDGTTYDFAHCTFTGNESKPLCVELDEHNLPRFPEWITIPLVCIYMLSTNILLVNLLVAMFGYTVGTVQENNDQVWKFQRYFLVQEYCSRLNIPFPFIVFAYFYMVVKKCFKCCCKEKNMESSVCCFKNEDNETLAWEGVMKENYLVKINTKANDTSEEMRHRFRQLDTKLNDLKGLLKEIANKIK
Chain of Transient receptor potential cation channel subfamily M member 8 (Rattus norvegicus, UniProt Q8R455) (Q8R455 whole entry): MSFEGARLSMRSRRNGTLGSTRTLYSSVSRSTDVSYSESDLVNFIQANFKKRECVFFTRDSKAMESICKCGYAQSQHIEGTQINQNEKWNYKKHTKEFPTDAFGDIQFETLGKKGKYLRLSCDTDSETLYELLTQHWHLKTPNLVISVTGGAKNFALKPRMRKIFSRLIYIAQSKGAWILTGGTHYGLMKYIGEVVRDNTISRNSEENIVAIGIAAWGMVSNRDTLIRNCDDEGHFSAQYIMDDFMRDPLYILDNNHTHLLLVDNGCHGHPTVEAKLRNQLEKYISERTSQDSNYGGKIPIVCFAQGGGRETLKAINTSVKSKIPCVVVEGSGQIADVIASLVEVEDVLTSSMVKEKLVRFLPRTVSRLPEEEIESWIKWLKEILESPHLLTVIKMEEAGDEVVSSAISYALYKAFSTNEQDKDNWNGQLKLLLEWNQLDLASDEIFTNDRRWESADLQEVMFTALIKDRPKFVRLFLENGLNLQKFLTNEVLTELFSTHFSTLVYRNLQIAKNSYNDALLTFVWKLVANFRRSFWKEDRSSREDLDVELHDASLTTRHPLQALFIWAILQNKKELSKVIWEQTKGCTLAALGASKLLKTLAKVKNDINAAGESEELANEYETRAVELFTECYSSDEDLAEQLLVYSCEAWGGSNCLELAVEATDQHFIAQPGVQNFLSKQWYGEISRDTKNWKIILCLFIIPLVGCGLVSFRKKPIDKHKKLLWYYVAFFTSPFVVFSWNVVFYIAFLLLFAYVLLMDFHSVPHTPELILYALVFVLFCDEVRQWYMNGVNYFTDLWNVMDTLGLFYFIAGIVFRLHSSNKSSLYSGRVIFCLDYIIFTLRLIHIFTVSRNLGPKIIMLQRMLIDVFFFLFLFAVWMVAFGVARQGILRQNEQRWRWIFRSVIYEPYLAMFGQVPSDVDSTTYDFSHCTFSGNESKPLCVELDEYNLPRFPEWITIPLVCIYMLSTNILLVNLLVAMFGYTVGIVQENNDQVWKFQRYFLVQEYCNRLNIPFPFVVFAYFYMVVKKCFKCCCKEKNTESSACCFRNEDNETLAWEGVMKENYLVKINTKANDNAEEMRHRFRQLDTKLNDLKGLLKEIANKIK
Chain of Transient receptor potential cation channel subfamily A member 1 (Rattus norvegicus, UniProt Q6RI86) (Q6RI86 whole entry): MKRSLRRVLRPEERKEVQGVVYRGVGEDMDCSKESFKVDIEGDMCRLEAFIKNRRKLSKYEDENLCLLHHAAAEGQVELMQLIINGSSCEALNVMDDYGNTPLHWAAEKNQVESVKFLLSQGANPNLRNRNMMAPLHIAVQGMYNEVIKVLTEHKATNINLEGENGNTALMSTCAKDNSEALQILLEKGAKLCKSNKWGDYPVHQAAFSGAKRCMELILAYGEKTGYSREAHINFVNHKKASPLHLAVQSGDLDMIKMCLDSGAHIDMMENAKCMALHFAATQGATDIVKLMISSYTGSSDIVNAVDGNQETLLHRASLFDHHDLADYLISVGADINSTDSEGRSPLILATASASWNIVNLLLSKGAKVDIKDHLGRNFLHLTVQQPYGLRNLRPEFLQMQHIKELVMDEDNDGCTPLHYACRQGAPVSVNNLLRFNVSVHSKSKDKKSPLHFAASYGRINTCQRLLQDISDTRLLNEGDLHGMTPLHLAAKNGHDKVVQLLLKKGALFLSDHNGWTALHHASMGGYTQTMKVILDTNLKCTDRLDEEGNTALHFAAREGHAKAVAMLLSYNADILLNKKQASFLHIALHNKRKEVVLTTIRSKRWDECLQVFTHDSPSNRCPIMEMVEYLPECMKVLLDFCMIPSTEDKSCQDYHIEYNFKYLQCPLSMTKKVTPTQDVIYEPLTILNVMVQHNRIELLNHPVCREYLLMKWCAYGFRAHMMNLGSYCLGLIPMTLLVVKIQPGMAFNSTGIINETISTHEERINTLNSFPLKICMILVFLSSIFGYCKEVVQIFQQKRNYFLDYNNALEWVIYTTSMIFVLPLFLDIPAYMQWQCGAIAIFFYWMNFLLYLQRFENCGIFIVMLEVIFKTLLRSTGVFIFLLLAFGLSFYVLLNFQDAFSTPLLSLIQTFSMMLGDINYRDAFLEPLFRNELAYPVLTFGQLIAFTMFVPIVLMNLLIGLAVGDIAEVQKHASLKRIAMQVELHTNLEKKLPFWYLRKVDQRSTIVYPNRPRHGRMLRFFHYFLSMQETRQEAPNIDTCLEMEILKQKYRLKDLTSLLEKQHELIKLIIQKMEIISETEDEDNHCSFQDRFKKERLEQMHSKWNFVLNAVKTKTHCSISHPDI
Chain of Transient receptor potential cation channel subfamily V member 1 (Rattus norvegicus, UniProt O35433) (O35433 whole entry, looked up): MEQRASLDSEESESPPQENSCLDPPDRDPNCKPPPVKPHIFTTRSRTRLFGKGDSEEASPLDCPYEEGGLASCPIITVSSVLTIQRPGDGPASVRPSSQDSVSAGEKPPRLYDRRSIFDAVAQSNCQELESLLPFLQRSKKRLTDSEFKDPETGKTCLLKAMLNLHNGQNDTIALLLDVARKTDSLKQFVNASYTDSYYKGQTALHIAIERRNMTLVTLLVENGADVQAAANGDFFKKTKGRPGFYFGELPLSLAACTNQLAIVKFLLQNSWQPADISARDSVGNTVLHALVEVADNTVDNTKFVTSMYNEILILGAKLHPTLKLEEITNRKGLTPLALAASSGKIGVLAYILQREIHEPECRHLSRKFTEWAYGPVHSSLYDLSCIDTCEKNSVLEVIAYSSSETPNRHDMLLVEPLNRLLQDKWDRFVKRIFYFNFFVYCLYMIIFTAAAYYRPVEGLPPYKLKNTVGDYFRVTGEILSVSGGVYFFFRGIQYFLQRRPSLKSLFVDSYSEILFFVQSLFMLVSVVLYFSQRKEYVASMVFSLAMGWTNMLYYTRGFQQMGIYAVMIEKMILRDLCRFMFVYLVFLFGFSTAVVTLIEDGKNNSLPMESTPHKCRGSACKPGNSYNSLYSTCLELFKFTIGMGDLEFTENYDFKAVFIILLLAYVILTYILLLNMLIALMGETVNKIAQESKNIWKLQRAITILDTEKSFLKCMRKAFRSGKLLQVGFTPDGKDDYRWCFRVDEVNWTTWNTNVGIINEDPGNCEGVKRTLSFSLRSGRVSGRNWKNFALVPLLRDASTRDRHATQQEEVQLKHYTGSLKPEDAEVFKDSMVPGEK
Chain of Transient receptor potential cation channel subfamily V member 4 (Q9HBA0 whole entry): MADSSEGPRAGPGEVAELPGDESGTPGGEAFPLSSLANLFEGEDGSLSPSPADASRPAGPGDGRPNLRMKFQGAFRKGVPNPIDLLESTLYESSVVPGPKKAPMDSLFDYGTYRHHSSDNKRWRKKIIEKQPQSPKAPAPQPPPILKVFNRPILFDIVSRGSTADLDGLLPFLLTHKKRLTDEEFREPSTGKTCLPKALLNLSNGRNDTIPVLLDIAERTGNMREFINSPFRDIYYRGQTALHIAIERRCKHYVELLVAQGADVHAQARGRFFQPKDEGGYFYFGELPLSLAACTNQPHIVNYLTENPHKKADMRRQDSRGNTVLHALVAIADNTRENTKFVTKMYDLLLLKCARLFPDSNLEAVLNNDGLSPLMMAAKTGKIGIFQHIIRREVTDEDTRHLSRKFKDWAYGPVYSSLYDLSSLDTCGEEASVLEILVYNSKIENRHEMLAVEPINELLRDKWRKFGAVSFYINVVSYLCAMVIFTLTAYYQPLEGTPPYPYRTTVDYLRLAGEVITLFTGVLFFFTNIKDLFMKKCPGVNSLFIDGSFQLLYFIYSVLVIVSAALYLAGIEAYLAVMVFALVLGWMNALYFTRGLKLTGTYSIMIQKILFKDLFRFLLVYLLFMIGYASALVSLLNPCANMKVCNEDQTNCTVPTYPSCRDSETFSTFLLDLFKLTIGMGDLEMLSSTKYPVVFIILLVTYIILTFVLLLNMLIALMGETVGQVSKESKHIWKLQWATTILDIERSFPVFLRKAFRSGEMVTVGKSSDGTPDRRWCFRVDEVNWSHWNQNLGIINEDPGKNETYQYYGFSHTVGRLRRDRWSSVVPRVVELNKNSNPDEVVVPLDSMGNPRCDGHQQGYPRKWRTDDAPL

`O=C(O)c1ccc(S(=O)(=O)N(Cc2ccccc2OC(F)(F)F)c2ncc(C(F)(F)F)cc2Cl)cc1`: the IC50 in [1] amounted to 96 nM. Further, the CLint scaled in [2] is < 7 mL/min/kg.

In the case of `O=C(O)c1ccc(S(=O)(=O)N(CCc2ccccc2)c2ncc(C(F)(F)F)cc2Cl)cc1`, the IC50 in data set [1] is 762 nM.

Take `O=C(O)c1ccc(S(=O)(=O)N(Cc2ccccc2)c2ncc(C(F)(F)F)cc2Cl)cc1`: the IC50 in data set [1] worked out at 61 nM. Besides, the CLint scaled in [2] was < 7 mL/min/kg. Besides, the solubility (thermodynamic) in data set [3] stood at 185 µM (≈ 87.1 µg/mL).

Consider `O=C(O)c1ccc(S(=O)(=O)N(Cc2cccc(C(F)(F)F)c2)c2ncc(C(F)(F)F)cc2Cl)cc1`, for which the 50% inhibitory concentration (IC50) in data set [1] is 41 nM. Further, in data set [2], the CLint scaled was < 7 mL/min/kg.

For the compound `O=S(=O)(c1ccc(CO)cc1)N(Cc1ccccc1)c1ncc(C(F)(F)F)cc1Cl`, the IC50 in data set [1] turned out to be 42 nM. In addition, in data set [2], the CLint scaled is > 168 mL/min/kg. Also, the solubility (thermodynamic) in [3] was determined as 35 µM (≈ 16 µg/mL).

Consider `O=C(O)c1ccc(S(=O)(=O)N(Cc2ccc(C(F)(F)F)cc2)c2ncc(Cl)cc2Cl)cc1`, for which the IC50 in data set [1] amounted to 11 nM; in [4], 9 nM. In addition, the CLint scaled in data set [2] was < 7 mL/min/kg; in data set [5], < 10.4 mL/min/kg. The compound also had an ED50 in the data set with Rattus norvegicus of 1.3 mg/kg. In data set [6], this compound gave a fraction unbound of 0.011.

Consider `N#Cc1cc(C(F)(F)F)cnc1N(Cc1ccccc1)S(=O)(=O)c1ccc(C(=O)O)cc1`, for which the half-inhibitory concentration (IC50) in [1] is 2470 nM.

As to `CN(C)C(=O)c1ccc(S(=O)(=O)N(Cc2ccccc2)c2ncc(C(F)(F)F)cc2Cl)cc1`, in data set [1], the IC50 turned out to be 67 nM. Also, the CLint scaled in [2] was > 168 mL/min/kg. Besides, the thermodynamic solubility in [3] amounted to 37 µM (≈ 18.4 µg/mL).

`O=C(O)c1ccc(S(=O)(=O)N(CCCc2ccccc2)c2ncc(C(F)(F)F)cc2Cl)cc1`: the IC50 in data set [1] was 49 nM. Also, the CLint scaled in [2] worked out at 81 mL/min/kg.

In the case of `Cc1c(N(Cc2ccc(C(F)(F)F)c(F)c2)S(=O)(=O)c2ccc(C(=O)O)cc2)sc2ccccc12`, in data set [1], the IC50 turned out to be 6.2 nM. The CLint scaled in data set [2] came to 8.5 mL/min/kg.

In the case of `Cc1cc(C(F)(F)F)cnc1N(Cc1ccccc1)S(=O)(=O)c1ccc(C(=O)O)cc1`, the IC50 in data set [1] came out at 736 nM.

As for `O=C(O)c1ccc(S(=O)(=O)N(CCN2CCOCC2)c2ncc(C(F)(F)F)cc2Cl)cc1`, the 50% inhibitory concentration (IC50) in data set [1] was 3720 nM. Moreover, in data set [2], the CLint scaled was < 7 mL/min/kg.

For `O=C(O)c1ccc(S(=O)(=O)N(Cc2ccccc2)c2ncccc2Cl)cc1`, the 50% inhibitory concentration (IC50) in [1] was determined as 9860 nM.

Turning to `O=C(O)c1ccc(S(=O)(=O)N(Cc2ccc(OC(F)(F)F)cc2)c2ncc(C(F)(F)F)cc2Cl)cc1`, the IC50 in data set [1] is 8.3 nM; in [4], 5.8 nM; in data set [7], > 10 µM; in data set [8] it was > 10 µM; in data set [9], > 3 µM; in data set [10], > 10 µM. Further, in data set [11], the half-inhibitory concentration (IC50) was > 3 µM. Also, the CLint scaled in data set [2] is < 7 mL/min/kg; in data set [5], < 10.4 mL/min/kg. In the data set on Rattus norvegicus, the 50% effect level (ED50) was put at a dose of 0.65 mg/kg. In addition, the unbound share (fraction unbound) in data set [6] is 0.0031. The same compound had a Cmax in data set [12] of 2300 ng/mL. In addition, the bioavailability in data set [13] is 86%.
